Details of data set [1]: method as in earlier work. The settings on record: within 24 h; cited from earlier work.
Data set [2] concerns KG-1a CD34+ cells. As to the kind of experiment: KG-1a-Luc CD34+ xenograft in NOD/SCID mice, bioluminescence. In kind it is in vivo. The protocol: Six-week-old female NOD-SCID mice (obtained from the model animal research center of Nanjing University, Nanjing, China) were acclimated for 1 week and housed in groups of five. All animal studies were conducted under the guidelines approved by the Animal Care and Use Committee of the Nanjing University of Chinese Medicine (Nanjing, China). The mice were sublethally irradiated with 2.7 Gy before transplantation.
KG-1a cells tagged with a luciferase reporter gene (KG-1a-Luc) were obtained from Cobioer biotechnology Inc. (Nanjing, Jiangsu, China) and cultured in 90% IMDM supplemented with 10% FBS, 0.05 mM 2-Mercaptoethanol, and 1 μg/mL Puromycin, and grown at 37 °C in a 5% CO2 humidified incubator. CD34 positive cells were enriched (following the 2.3 method) and injected via the tail vein in a final volume of 0.2 mL PBS with 0.5% FBS. For analyzing the luciferase signal, 5 × 10^6 cells KG-1a-Luc cells were used for each recipient animal. Seven days after transplantation, mice with KG-1a-Luc implants were subjected to bioluminescent analysis based on the luciferase signal. Briefly, mice received D-luciferin phosphate solution (100 mg/kg) intravenously 10 min prior to imaging. They were then anesthetized with isoflurane inhalation and imaged using a Xenogen IVIS scanner (PerkinElmer, Waltham, MA, USA). The next day, mice showing successful implantations were randomly divided into the control, DMAPE low dose, DMAPE high dose, and Ara-C treatment groups (n = 5 in each group), which received daily i. g. saline buffer, DMAPE phosphate salt 25 mg/kg, DMAPE phosphate salt 50 mg/kg and Ara-C (50 mg/kg), respectively. The growth of KG-1a-Luc cells was monitored every week by their luciferase signal. Five weeks after the implantation, all mice were sacrificed and their livers, kidneys, and bone marrow were excised for ex vivo bioluminescent imaging. The bioluminescent signal intensity was all quantified using the Living Image software (version 4.2, Carliper Life Science, Inc., Hopkinton, MA, USA) and is presented as photons/second/cm^2/sr (sr denotes steradian).

Data set [3] deals with T1, recombinant human TrxR1 (Homo sapiens, UniProt Q16881).
T1 construct: purchased Abcam ab204206
T1 sequence (Q16881 1-499 isoform Q16881-5): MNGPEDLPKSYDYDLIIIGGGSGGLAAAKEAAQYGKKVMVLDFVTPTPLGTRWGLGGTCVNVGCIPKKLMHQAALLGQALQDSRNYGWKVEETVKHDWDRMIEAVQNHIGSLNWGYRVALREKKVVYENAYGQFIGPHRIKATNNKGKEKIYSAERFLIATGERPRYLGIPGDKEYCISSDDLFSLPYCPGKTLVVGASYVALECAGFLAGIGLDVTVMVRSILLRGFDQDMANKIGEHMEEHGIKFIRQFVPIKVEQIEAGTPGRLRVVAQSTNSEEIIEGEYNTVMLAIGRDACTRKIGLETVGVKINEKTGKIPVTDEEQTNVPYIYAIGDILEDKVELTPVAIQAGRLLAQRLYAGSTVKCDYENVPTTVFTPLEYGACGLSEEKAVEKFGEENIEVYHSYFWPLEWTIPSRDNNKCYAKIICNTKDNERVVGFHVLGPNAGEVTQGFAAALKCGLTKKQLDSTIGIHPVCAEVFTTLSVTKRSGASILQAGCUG
Description: In vitro TrxR1 activity assay (DTNB reduction). In kind it is biochemical. The protocol: The in vitro TrxR1 activity assay was performed using the DTNB reduction assay. Briefly, 0.1 μM recombinant human TrxR1 or TrxR1 without Sec498 residue (TrxR1 nSec) protein was reduced with 100 μM NADPH in assay buffer (50 mM Tris-HCl, 1 mM EDTA, pH = 7.5) for 30 min at room temperature. The reduced proteins was then treated with the indicated concentrations of PepE (final concentrations of 0.25, 0.5, 1, 2, 4, 6 μM), respectively, and incubated for 1 h at 37 °C. A mixture of assay buffer solution (50 mM Tris-HCl, 1 mM EDTA, pH = 7.5) containing DTNB and NADPH was added then added, making the final concentrations of DTNB and NADPH 2 mM and 200 μM, respectively. The absorbance was monitored at 412 nm using the SpectraMax i3x microplate reader (Molecular Devices). The linear increase of absorbance during the initial 3 min was recorded for calculating the relative enzyme activity. The same amount of DMSO was added to the control experiments and the activity is expressed as the percentage of the control.

Data set [4] concerns the target T2, GPX1 (Homo sapiens, UniProt P07203).
T2 construct: purchased Abcam
T2 sequence (P07203 1-203): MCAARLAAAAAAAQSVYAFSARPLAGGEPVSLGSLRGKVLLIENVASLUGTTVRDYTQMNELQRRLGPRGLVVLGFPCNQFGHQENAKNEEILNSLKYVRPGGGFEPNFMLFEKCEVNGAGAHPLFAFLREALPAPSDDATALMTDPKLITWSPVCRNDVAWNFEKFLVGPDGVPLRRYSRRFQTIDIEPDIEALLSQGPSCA
Description: BLI binding assay, GPX1. The protocol: The binding kinetics of PepE or PepA to purified recombinant proteins were determined using BLI on an Octet RED 96 system (ForteBio, Shanghai, China) following the manufacturer's protocol. All interaction analyses were performed at 25 °C in PBS with 0.2% DMSO. Purified recombinant proteins (0.9 μM, the TrxR1 full length and TrxR1 protein fragment were pre-reduced by 400 μM of NADPH before test) were pre-labeled with biotin using […] (Abcam) following the manufacturer's instruction. Loading of the Dip and Read Super Streptavidin (SSA) Biosensors (ForteBio) were conducted by exposing biotinylated proteins to biosensor tips for 2 h. The 96-well microplates used in the Octet were filled with 200 μL sample or buffer per well and agitated at 1000 rpm. The loaded biosensors were washed in buffer for 600 s and transferred to wells containing PepE at concentrations of 0.625, 1.25, 2.5, 5, and 10 μM or PepA at concentrations of 1.25, 2.5, 5, 10 and 20 μM, respectively, in the buffer. […] Reference measurements were conducted using the buffer instead of PepE (or PepA). A parallel set of SA unloaded biosensors was prepared to act as a control. […] Kinetic parameters (Kon and Kdis) and affinity (KD) were determined from a global fit to a 1:1 binding model of the data between proteins and PepE using Octet software (ForteBio).

The structures appear in SMILES notation.

For the molecule `COc1cc(C(c2cc(OC)c3c(c2)OCO3)[C@@H]2COC(=O)[C@H]2CN(C)CCO)cc2c1OCO2` [DMAPE, (2S,3S)-6-Methyl (hydroxyethyl) amino-2,6-dihydropeperomin E], the “stability in the cell cultural media (without cells)” value in data set [1] is listed as “stable”. Moreover, the “growth and metastasis of AML CD34+ cells in NOD/SCID mice” value in data set [2] (25 mg/kg/d) is reported as “significantly suppressed”. Also, the “luciferase signal in the bone marrow” value in data set [2] (50 mg/kg i.g. daily, week 5, ex vivo imaging) is reported as “almost no luciferase signal was detected”. The “overall luciferase signal in the liver and kidney, saline vs treated” value in data set [2] (50 mg/kg i.g. daily, week 5, P < 0.001 kidneys, P < 0.01 livers) was “significantly stronger in the saline-treated group”. For the same molecule, the “luciferase signal intensities compared to the saline-treated mice” value in data set [2] (25 and 50 mg/kg i.g. daily, P < 0.05 at three weeks, P < 0.01 at five weeks) was “significantly weaker”.

On to `C=C1C(=O)OC[C@H]1C(c1cc(OC)c2c(c1)OCO2)c1cc(OC)c2c(c1)OCO2` [PepE, Peperomin E], for which, in data set [3] (DTNB reduction assay, NADPH-reduced TrxR1 0.1 μM, 1 h at 37 °C), the IC50 came to 0.94 µM. Also, the “reversibility of TrxR1 inhibition” value in data set [3] (removal of PepE by Sephadex G-25 desalting column did not recover activity (data not shown)) is “irreversibly”. In data set [4], this molecule returned a Kd of 534 µM and a kon of 6400 M⁻¹ s⁻¹.

These data come from article PMC6434189, “Peperomin E and its orally bioavailable analog induce oxidative stress-mediated apoptosis of acute myeloid leukemia progenitor cells by targeting thioredoxin reductase” (Redox Biology, 2019).
